What was measured:
[1] = Complement activation indicators in non-human primates; type: in vivo
Protocol: The tolerability and efficacy of nanoparticle compositions to non-human primates was also investigated using a sample formulation including Compound 18. The formulation was prepared according to the standard MC3 formulation described above and included an hEPO mRNA. Primates were administered a single dose of 0.05 (Group 1), 0.3 (Group 2), or 1.0 (Group 3) mpk via intravenous infusion for 60 minutes. Three primates were administered each dose. Expression of hEPO was measured prior to dosing and at 2, 6, 24, 48, and 96 hours post-treatment (Table 26). Table 28 includes levels of indicators of complement activation, while Table 29 includes cytokine induction data.

[2] = Protein expression with nanoparticle composition containing Compound 18 versus MC3 counterpart, 0.1 and 0.3 mpk; type: in vivo; details: dose response between 0.1 and 0.3 mpk
human hepatocytes = assay: Metabolite profiling of Compound 18 incubated with human hepatocytes; type: in vitro ADME; set-up: key: +: Detected; ND: Not detected; details: Compound 18 (10 μM)
Protocol: In vitro metabolite identification studies using compound 18 were also performed. […] The disappearance of parent compound 18 and the primary metabolite, compound 166, from mouse liver tissue was measured after dosing 0.25 mg/kg mRNA on days 1, 8, and 15.
The results of metabolic profiling and characterization for compound 18 incubated with human hepatocytes or human plasma are summarized in Tables 41 and 42, respectively.

LDLr knockout mice = assay: Expression study in LDLr knockout mice; type: in vivo; details: compound 18 based LNPs
[3] = Alanine aminotransferase (ALT) and aspartate aminotransferase (AST) in rat after intravenous administration; type: in vivo
Protocol: Table 19A summarizes the hEPO expression, IP-10 induction, liver and spleen levels, and alanine aminotransferase (ALT) and aspartate aminotransferase (AST) measured upon intravenous administration of formulations including Compounds 48, 49, and 50 to rat at 0.2 and 2 mpk and hEPO mRNA. hEPO concentrations were measured 6 hours after administration, while cytokine induction and liver and spleen levels were measured 48 hours after administration. hEPO and IP-10 concentrations are presented in pg/ml, while liver levels are provided in ng/g. ALT and AST levels are presented in international units.

hEPO mRNA = assay: Pretreatment study (methotrexate or dexamethasone) with MC3 formulation in Cynomolgus monkeys; type: in vivo; details: once weekly for four weeks, absence of any pretreatment
Excerpt: In order to combat negative effects, nanoparticle compositions are co-administered with one or more substances (e.g., co-medications or additional therapeutic and/or prophylactics) to subjects. Potentially useful additional therapeutic and/or prophylactics include steroids (e.g., corticosteroids), anti-histamines, H1 receptor blockers, H2 receptor blockers, anti-inflammatory compounds, statins, BTK inhibitors, S1P1 agonists, glucocorticoid receptor modulators (GRMs), and estradiols. Non-human primates are pretreated with one or more additional therapeutic agents selected from dexamethasone and acetaminophen. The additional therapeutic agent is administered either 24 hours, 1 hour, or both 24 hours and 1 hour before administration of a nanoparticle composition. Cytokine profiles, inflammation, and other parameters are measured and compared to evaluate the effectiveness of pretreatment
The effects of pretreatment to non-human primates were evaluated using a standard MC3 formulation including an mRNA encoding hEPO. Male monkeys were administered the nanoparticle composition once weekly for four weeks at a dose rate of 5 ml/kg/h and were pretreated with either methotrexate or dexamethasone.
As shown, in the absence of any pretreatment, maximal expression levels decreased nearly 70% over the course of the study.

Sprague Dawley rat = details: 0.3 mg/kg dose mRNA; cited from earlier work
[4] = LNP formulation characterization (particle size, PDI, RNA encapsulation, endotoxin); type: physicochemical; details: ± SD within one assay run
Protocol: Preparation of LNP formulations: Lipids were dissolved in ethanol at molar ratios of 50:10:38.5:1.5 (ionizable lipid: DSPC: cholesterol:PEG-lipid). The lipid mixture was combined with a 6.25 mM sodium acetate buffer (pH 5) containing mRNA at a ratio of 3:1 (aqueous:ethanol) using a microfluidic mixer. Formulations were dialyzed against phosphate buffered saline (pH 7.4) in dialysis cassettes for at least 18 hours. Formulations were concentrated via centrifugal filtration, passed through a 0.22-μm filter and stored at 4° C. until use. […] The apparent pKa of the LNP formulation was determined via a TNS assay.

[5] = pKa / apparent pKa of nanoparticle compositions; details: Table 1B; formulated with hEPO mRNA
[6] = pH, osmolality and zeta potential of nanoparticle compositions; type: physicochemical; details: nanoparticle composition with hEPO mRNA (Table 30)

Q: With `CCCCCCCCCOC(=O)CCCCCCCN(CCO)CCCCCCCC(=O)OC(CCCCCCCC)CCCCCCCC` [Compound 18, Heptadecan-9-yl 8-((2-hydroxyethyl)(8-(nonyloxy)-8-oxooctyl)amino)octanoate] as the molecule, how does the Bb fragment ([1]; Group 1 (0.05 mpk), 2 h) read?
A: 5341 ng/mL

Q: What about the C5b9 ([1]; Group 1 (0.05 mpk), 2 h) of the same molecule?
A: 1959 ng/mL

Q: What about the Bb fragment ([1]; Group 1 (0.05 mpk), 6 h) of the same molecule?
A: 3037 ng/mL

Q: And the C3a ([1]; Group 1 (0.05 mpk), 6 h)?
A: 12385 ng/mL

Q: What about the C5b9 ([1]; Group 1 (0.05 mpk), 6 h) of the same molecule?
A: 786 ng/mL

Q: What about the Bb fragment ([1]; Group 1 (0.05 mpk), 24 h) of the same molecule?
A: 1496 ng/mL

Q: And the C3a ([1]; Group 1 (0.05 mpk), 24 h)?
A: 11596 ng/mL

Q: And the Bb fragment ([1]; Group 1 (0.05 mpk), Day 5)?
A: 1273 ng/mL

Q: What about the C3a ([1]; Group 1 (0.05 mpk), Day 5) of the same molecule?
A: 11945 ng/mL

Q: And the Bb fragment ([1]; Group 1 (0.05 mpk), Predose)?
A: 1375 ng/mL

Q: What about the C5b9 ([1]; Group 1 (0.05 mpk), Predose) of the same molecule?
A: 169 ng/mL

Q: What about the Bb fragment ([1]; Group 2 (0.3 mpk), 2 h) of the same molecule?
A: 5356 ng/mL

Q: What about the C5b9 ([1]; Group 2 (0.3 mpk), 2 h) of the same molecule?
A: 393 ng/mL

Q: What about the Bb fragment ([1]; Group 2 (0.3 mpk), 6 h) of the same molecule?
A: 7157 ng/mL

Q: And the C3a ([1]; Group 2 (0.3 mpk), 6 h)?
A: 32436 ng/mL

Q: What about the C5b9 ([1]; Group 2 (0.3 mpk), 6 h) of the same molecule?
A: 1333 ng/mL

Q: What about the Bb fragment ([1]; Group 2 (0.3 mpk), 24 h) of the same molecule?
A: 3680 ng/mL

Q: And the C3a ([1]; Group 2 (0.3 mpk), 24 h)?
A: 19721 ng/mL

Q: And the Bb fragment ([1]; Group 2 (0.3 mpk), Day 5)?
A: 2400 ng/mL

Q: What about the C3a ([1]; Group 2 (0.3 mpk), Day 5) of the same molecule?
A: 16207 ng/mL

Q: What about the Bb fragment ([1]; Group 2 (0.3 mpk), Predose) of the same molecule?
A: 1461 ng/mL

Q: What about the C5b9 ([1]; Group 2 (0.3 mpk), Predose) of the same molecule?
A: 157 ng/mL

Q: And the Bb fragment ([1]; Group 3 (1.0 mpk), 2 h)?
A: 8849 ng/mL

Q: And the C5b9 ([1]; Group 3 (1.0 mpk), 2 h)?
A: 801 ng/mL

Q: And the Bb fragment ([1]; Group 3 (1.0 mpk), 6 h)?
A: 12820 ng/mL

Q: What about the C3a ([1]; Group 3 (1.0 mpk), 6 h) of the same molecule?
A: 51996 ng/mL

Q: What about the C5b9 ([1]; Group 3 (1.0 mpk), 6 h) of the same molecule?
A: 2928 ng/mL

Q: And the Bb fragment ([1]; Group 3 (1.0 mpk), 24 h)?
A: 8601 ng/mL

Q: And the C3a ([1]; Group 3 (1.0 mpk), 24 h)?
A: 35843 ng/mL

Q: And the Bb fragment ([1]; Group 3 (1.0 mpk), Day 5)?
A: 2834 ng/mL

Q: What about the C3a ([1]; Group 3 (1.0 mpk), Day 5) of the same molecule?
A: 19101 ng/mL

Q: And the Bb fragment ([1]; Group 3 (1.0 mpk), Predose)?
A: 1529 ng/mL

Q: What about the C5b9 ([1]; Group 3 (1.0 mpk), Predose) of the same molecule?
A: 238 ng/mL

Q: And the “0.3 mpk AUC relative to 0.1 mpk dose AUC” value [2]?
A: about three times

Q: What about the “Detection at 0 min” value (human hepatocytes; human hepatocytes (1 million cells/mL), 0 min) of the same molecule?
A: +

Q: And the “Detection at 60 min” value (human hepatocytes; human hepatocytes, 60 min)?
A: +

Q: And the “Detection at 120 min” value (human hepatocytes; human hepatocytes, 120 min)?
A: +

Q: And the “Detection at 240 min” value (human hepatocytes; human hepatocytes, 240 min)?
A: +

Q: What about the “expression in LDLr knockout mice” value (LDLr knockout mice) of the same molecule?
A: almost complete loss in expression

Q: With `CCCCCC=CCC=CCCCCCCCCC(CCCCCCCCC=CCC=CCCCCC)OC(=O)CCCN(C)C` (stereo not drawn) [MC3, heptatriaconta-6,9,28,31-tetraen-19-yl 4-(dimethylamino)butanoate, reference compound] as the molecule, how does the ALT ([3]; intravenous 0.2 mpk) read?
A: 63.6 international units

Q: What about the AST ([3]; intravenous 0.2 mpk) of the same molecule?
A: 134.8 international units

Q: What about the ALT ([3]; intravenous 2 mpk) of the same molecule?
A: 79.6 international units

Q: And the AST ([3]; intravenous 2 mpk)?
A: 139.0 international units

Q: What about the “Decrease of maximal expression levels over the course of the study” value (hEPO mRNA) of the same molecule?
A: ~70%

Q: What about the “ALT, AST and pathology of MC3-based mRNA LNP” value (Sprague Dawley rat) of the same molecule?
A: ALT and AST were elevated and pathology showed evidence of necrosis

Q: And the “% Encapsulation” value [4]?
A: 97.3 ± 1.9%

Q: And the “PDI (polydispersity index)” value [4]?
A: 0.11 ± 0.04

Q: What about the “Apparent pKa” value [5] of the same molecule?
A: 6.35

Q: What about the Osmolality [6] of the same molecule?
A: 318 mOsm/kg

Q: What about the Zeta potential [6] of the same molecule?
A: −3.64 mV

Q: And the pH [6]?
A: 7.52
